Tests used:
Format in all cases: biochemical
PI3Kγ (p120γ)(h) = PI3Kγ (p120γ)(h) (Homo sapiens, UniProt P48736); experiment: Assay for phosphatidylinositol 3-kinase gamma (PI3Kγ) activity, PI3K-HTRF kit; details: TR-FRET; enzyme 1.45 μg/ml, 10 μM PIP2, 10 μM ATP
Method: (§1) The compounds of the present invention were assayed for the activity of phosphatidylinositol 3-kinase gamma (PI3Kγ) by using a PI3K enzyme-homogenous time resolved fluorescence (PI3K-HTRF) kit, which is available from Upstate (Millipore Co, Billerica, Mass., USA).
(§2) Three kinds of buffer solutions including a phosphorylation reaction solution (a reaction buffer containing 40 mM MgCl2 which is available from Upstate was diluted 4 times and added with 5 mM DTT), a stop solution (STOP A and B solutions which are available from Upstate were mixed at a ratio of 3:1) and a fluorescence detection solution (Detection solutions A, B and C which are available from Upstate were mixed at a ratio of 1:1:18) were prepared. 1 mM of PIP2 substrate (phosphatidylinositol 4,5 biphosphate; Upstate), PI3Kγ (#14-558; Upstate) enzyme and 10 mM ATP (Sigma Aldrich Co., St. Louis, Mo., USA) were prepared. Each of PI3Kγ, 1 mM PIP2 and 10 mM ATP was diluted to 2.9 μg/ml (final reaction concentration: 1.45 μg/ml), 20 μM (final reaction concentration: 10 μM) and 40 μM (final reaction concentration: 10 μM), respectively. The buffer solution used for dilution and preparation process was the phosphorylation reaction solution. The stop solution was used for the termination of phosphorylation reaction, and the fluorescence detection solution was used for the detection of time-resolved fluorescence signals.
(§3) Each test sample was transferred to a 384 well low flange white flat bottom microplate (#3572, Corning Life Sciences, Lowell, Mass., USA) by using a multi 8-channel (Pipetman Neo multi 8×20, Gilson, Middleton, Wis., USA) to make a final phosphorylation reaction volume of 20 μl per each well. For the negative control, 5 μl of 14.4% DMSO and 10 μl of PIP2 substration solution were used, and 5 μl of 14.4% DMSO and 10 μl of PIP2/PI3Kγ mixed solution were used as the positive control. For the test group, 5 μl of a solution prepared by dissolving the compound obtained in Example in DMSO and 10 μl of PIP2/PI3Kγ mixed solution were used. Before the initiation of the phosphorylation reaction, sample compounds were pretreated with the enzyme for approximately 10 minutes, and then the phosphorylation reaction was induced by adding 5 μl of ATP. Since each of the test compound and ATP takes up 25% of the total volume, and PIP2 and PI3Kγ take up 50% of the total volume during the reaction, each solution was concentrated 4 and 2 times, respectively, before mixing the solutions. Subsequently, the test sample was gently shook for 3 minutes and subjected to a phosphorylation reaction for 90 minutes at room temperature, which was then added with 5 μl of the stop solution to terminate the phosphorylation reaction. In order to induce a time-resolved fluorescence reaction, 5 μl of the fluorescence detection solution was added to the sample. The fluorescence detection solution contains biotin-phosphatidylinositol 3,4,5-triphosphate (PIP3), streptavidin-labeled Allopycocyanin (APC) and europium-labeled Pleckstrin homology domain (the PIP3 binds to PH domain), and the time-resolved fluorescence reaction is induced by a series of reaction of PH domain and PIP3, and biotin and streptavidin. The sample was left to stand for 6 hours at room temperature, and the time-resolved fluorescence resonance energy transfer (TR-FRET) rate was measured (emission wavelength: 665 nm, 620 nm, excitation wavelength: 340 nm) by using a Flexstation3 Micro plate reader (Molecular Devices, USA). TR-FRET Rate and TR-Inhibition Rate were calculated based on Equations 1 and 2 below, and the results are expressed in IC50, which is the concentration of a compound that inhibits 50% of PI3Kγ activity in vitro. TR-FRET Rate=(665 nm emission wavelength/620 nm emission wavelength)×10000 <Equation 1> TR-FRET Inhibition Rate=[(TR-FRET Rate of Sample−TR-FRET Rate of Negative Control)/(TR-FRET Rate of Positive Control−TR-FRET Rate of Negative Control)]×100 <Equation 2>

PI3Kα (p110α/p85α)(h) = PI3Kα (p110α/p85α)(h) (Homo sapiens, UniProt P42336); experiment: Assay for phosphatidylinositol 3-kinase alpha (PI3Kα) activity, PI3K-HTRF kit; details: TR-FRET; enzyme 0.3625 μg/ml, 10 μM PIP2, 10 μM ATP
Sequence of PI3Kα (p110α/p85α)(h) (P42336 whole entry): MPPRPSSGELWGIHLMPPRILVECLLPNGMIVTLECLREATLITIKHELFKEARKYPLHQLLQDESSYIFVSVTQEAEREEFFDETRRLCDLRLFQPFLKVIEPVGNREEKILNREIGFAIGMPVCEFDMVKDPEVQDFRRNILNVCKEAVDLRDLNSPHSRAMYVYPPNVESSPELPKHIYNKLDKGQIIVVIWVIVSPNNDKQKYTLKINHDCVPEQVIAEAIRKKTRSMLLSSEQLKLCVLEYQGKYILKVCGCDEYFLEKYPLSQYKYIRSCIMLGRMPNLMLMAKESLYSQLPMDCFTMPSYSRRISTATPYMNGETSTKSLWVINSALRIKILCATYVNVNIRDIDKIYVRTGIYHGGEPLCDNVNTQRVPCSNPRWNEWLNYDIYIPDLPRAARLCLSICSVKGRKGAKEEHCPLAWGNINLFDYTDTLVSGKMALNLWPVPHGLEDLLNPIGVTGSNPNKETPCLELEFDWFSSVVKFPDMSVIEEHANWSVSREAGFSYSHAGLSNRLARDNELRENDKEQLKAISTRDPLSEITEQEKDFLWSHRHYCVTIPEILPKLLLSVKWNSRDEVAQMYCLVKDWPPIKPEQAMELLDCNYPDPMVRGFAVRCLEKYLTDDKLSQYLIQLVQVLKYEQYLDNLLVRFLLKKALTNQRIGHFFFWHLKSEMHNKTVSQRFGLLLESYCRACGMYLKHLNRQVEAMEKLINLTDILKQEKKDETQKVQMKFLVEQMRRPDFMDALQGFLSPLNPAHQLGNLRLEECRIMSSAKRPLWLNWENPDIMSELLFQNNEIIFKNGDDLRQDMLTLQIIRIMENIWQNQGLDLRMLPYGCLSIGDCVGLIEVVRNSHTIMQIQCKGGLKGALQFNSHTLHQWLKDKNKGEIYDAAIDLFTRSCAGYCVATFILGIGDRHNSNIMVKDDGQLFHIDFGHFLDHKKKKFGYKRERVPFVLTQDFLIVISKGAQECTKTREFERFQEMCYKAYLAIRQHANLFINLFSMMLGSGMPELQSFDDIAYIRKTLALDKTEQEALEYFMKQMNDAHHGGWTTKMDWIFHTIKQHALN
Sequence of PI3Kα (p110α/p85α)(h) (P27986 whole entry partner): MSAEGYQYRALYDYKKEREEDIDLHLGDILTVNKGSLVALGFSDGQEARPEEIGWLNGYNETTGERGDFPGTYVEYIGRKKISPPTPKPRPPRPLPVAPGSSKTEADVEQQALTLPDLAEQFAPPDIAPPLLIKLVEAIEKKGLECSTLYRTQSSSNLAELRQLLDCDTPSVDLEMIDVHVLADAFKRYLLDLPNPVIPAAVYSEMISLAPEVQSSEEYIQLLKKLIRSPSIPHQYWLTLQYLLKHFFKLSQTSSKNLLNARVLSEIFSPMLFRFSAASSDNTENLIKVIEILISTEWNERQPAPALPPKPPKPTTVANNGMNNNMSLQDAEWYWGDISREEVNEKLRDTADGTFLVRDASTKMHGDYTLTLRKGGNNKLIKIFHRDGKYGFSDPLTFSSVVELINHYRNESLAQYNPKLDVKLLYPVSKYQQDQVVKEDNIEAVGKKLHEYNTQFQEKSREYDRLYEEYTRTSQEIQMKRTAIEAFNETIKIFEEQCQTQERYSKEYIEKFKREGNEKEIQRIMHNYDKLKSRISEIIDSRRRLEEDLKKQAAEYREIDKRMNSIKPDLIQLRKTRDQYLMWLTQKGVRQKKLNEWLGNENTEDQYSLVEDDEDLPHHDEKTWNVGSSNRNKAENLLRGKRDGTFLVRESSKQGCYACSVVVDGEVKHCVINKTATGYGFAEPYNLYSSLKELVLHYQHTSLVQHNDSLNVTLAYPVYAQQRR
Method: [The source words this procedure for another target and says it was used here with some conditions changed.] as §1, §2, §3

PI3K β (p110β/p85α)(h) = PI3K β (p110β/p85α)(h) (Homo sapiens, UniProt P42338); experiment: Assay for phosphatidylinositol 3-kinase beta (PI3Kβ) activity, PI3K-HTRF kit; details: TR-FRET; enzyme 0.725 μg/ml, 10 μM PIP2, 10 μM ATP
Sequence of PI3K β (p110β/p85α)(h) (P42338 whole entry): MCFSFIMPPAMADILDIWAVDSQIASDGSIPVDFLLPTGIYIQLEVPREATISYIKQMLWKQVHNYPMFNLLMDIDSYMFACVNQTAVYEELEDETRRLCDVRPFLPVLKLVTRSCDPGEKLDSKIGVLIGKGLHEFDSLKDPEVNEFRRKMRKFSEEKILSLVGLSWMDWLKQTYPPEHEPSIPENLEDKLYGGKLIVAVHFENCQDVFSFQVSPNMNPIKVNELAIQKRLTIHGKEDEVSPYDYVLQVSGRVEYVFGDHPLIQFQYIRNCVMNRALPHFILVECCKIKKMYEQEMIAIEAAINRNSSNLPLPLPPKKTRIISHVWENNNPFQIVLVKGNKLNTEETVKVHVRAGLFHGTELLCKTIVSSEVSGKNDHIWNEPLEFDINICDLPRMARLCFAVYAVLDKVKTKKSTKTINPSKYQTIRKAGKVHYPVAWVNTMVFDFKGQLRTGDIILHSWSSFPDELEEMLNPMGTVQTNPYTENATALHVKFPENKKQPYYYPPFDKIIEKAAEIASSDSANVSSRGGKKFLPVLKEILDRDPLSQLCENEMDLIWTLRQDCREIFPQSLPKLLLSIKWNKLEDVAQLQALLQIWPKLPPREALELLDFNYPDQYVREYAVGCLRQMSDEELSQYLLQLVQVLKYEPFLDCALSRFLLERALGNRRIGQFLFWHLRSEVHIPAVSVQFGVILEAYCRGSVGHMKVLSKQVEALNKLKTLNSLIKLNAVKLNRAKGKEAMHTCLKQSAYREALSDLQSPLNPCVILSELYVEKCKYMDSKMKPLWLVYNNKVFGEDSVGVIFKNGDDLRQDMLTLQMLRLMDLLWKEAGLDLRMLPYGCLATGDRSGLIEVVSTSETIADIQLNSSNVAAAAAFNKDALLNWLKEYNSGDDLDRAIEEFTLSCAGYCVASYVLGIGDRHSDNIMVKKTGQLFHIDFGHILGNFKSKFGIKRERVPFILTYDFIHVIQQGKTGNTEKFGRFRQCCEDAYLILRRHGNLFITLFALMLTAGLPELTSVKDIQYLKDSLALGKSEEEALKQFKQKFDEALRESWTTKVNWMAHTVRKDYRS
Sequence of PI3K β (p110β/p85α)(h) (P27986 whole entry partner): as the sequence (P27986 whole entry partner) above
Method: [The source words this procedure for another target and says it was used here with some conditions changed.] as §1, §2
as §3, with “2> […]” for “2>”

PI3Kδ (p110δ/p85α)(h) = PI3Kδ (p110δ/p85α)(h) (Homo sapiens, UniProt O00329); experiment: Assay for phosphatidylinositol 3-kinase delta (PI3Kδ) activity, PI3K-HTRF kit; details: TR-FRET; enzyme 0.725 μg/ml, 10 μM PIP2, 10 μM ATP
Sequence of PI3Kδ (p110δ/p85α)(h) (O00329 whole entry): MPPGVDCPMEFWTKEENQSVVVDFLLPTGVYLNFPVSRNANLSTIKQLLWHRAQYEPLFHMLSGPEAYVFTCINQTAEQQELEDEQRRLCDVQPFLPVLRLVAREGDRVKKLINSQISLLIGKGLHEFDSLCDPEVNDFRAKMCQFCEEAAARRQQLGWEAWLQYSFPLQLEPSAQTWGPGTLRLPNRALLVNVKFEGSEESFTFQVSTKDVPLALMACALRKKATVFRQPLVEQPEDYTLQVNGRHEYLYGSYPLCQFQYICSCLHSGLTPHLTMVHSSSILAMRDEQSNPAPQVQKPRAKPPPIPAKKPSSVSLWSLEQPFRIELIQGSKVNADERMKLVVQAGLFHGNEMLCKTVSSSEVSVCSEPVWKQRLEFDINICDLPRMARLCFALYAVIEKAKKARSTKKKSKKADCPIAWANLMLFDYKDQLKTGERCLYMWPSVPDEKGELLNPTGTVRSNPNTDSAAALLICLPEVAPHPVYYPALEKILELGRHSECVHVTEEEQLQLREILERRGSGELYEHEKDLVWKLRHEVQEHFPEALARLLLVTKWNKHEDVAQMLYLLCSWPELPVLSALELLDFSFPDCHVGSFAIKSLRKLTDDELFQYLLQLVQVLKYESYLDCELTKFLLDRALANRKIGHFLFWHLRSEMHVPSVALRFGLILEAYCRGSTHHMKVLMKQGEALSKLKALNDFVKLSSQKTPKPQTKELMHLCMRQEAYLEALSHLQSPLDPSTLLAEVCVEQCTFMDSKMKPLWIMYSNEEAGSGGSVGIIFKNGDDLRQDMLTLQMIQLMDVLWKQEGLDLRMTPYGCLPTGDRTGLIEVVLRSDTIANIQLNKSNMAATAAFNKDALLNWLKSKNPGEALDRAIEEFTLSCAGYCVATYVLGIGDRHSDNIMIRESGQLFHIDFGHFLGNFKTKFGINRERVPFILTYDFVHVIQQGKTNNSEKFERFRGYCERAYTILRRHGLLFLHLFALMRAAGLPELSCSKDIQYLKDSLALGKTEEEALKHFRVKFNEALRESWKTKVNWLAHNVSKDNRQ
Sequence of PI3Kδ (p110δ/p85α)(h) (P27986 whole entry partner): as the sequence (P27986 whole entry partner) above
Method: [The source words this procedure for another target and says it was used here with some conditions changed.] as §1, §2
as §3, with “2> […]” for “2>”

Sequence of PI3Kγ (p120γ)(h) (P48736 whole entry): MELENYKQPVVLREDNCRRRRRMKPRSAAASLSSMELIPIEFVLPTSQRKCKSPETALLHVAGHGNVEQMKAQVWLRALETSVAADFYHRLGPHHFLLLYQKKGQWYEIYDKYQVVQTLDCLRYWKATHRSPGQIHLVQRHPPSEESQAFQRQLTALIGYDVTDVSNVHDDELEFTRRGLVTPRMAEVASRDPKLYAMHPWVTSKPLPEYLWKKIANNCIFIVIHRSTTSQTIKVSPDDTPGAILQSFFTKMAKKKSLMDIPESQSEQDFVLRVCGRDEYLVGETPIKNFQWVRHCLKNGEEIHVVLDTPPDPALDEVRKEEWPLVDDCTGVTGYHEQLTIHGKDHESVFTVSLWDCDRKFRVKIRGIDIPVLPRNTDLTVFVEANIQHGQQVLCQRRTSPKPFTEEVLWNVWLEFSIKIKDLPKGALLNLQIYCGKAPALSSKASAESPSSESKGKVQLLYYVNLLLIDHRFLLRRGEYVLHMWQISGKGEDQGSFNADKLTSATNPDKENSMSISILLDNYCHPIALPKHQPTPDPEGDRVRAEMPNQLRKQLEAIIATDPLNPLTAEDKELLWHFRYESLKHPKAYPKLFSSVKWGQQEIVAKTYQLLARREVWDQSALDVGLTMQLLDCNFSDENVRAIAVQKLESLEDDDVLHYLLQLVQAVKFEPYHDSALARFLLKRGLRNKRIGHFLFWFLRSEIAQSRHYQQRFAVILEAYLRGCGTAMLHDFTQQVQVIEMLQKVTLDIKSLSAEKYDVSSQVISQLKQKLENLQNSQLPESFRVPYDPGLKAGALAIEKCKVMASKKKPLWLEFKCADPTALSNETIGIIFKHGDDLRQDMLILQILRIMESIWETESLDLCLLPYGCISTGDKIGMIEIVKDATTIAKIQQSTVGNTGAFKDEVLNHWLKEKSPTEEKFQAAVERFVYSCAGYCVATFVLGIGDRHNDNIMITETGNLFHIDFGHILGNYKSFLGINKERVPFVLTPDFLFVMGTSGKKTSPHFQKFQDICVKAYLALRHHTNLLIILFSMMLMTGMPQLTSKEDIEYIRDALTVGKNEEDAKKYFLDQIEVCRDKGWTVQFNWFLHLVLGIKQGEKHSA

Compound	IC50 (PI3Kγ (p120γ)(h)) [nM]	IC50 (PI3Kα (p110α/p85α)(h)) [nM]	IC50 (PI3K β (p110β/p85α)(h)) [nM]	IC50 (PI3Kδ (p110δ/p85α)(h)) [nM]
COc1ccc(-c2cncc3cc(/C=C4\SC(=O)NC4=O)oc23)cc1C(F)(F)F [Example 90, (Z)-5-([7-{4-Methoxy-3-(trifluoromethyl)phenyl}furo[3,2-c]pyridin-2-yl]methylene)thiazolidine-2,4-dione]	5	3	3570	6250
CCOc1ccc(-c2cncc3cc(/C=C4\SC(=O)NC4=O)oc23)cc1C(F)(F)F [Example 94, (Z)-5-([7-{4-Ethoxy-3-(trifluoromethyl)phenyl}furo[3,2-c]pyridin-2-yl]methylene)thiazolidine-2,4-dione]	8	6	> 10000	> 10000
O=C1NC(=O)/C(=C/c2cc3cncc(C#Cc4ccccc4)c3o2)S1 [Example 125, (Z)-5-[{7-(Phenylethynyl)furo[3,2-c]pyridin-2-yl}methylene]thiazolidine-2,4-dione]	12	58	> 10000	> 10000
O=C1NC(=O)/C(=C/c2cc3cncc(-c4cccc(CN5CCCCC5)c4)c3o2)S1 [Example 132, (Z)-5-([7-{3-(Piperidin-1-ylmethyl)phenyl}furo[3,2-c]pyridin-2-yl]methylene)thiazolidine-2,4-dione]	95	22	337	98
CN1CCN(Cc2ccc(-c3cncc4cc(/C=C5\SC(=O)NC5=O)oc34)cc2)CC1 [Example 134, (Z)-5-{(7-[4-{(4-Methylpiperazin-1-yl)methyl}phenyl]furo[3,2-c]pyridin-2-yl)methylene}thiazolidine-2,4-dione]	344	95	> 1000	54
O=C1NC(=O)/C(=C/c2cc3cncc(-c4cccc(NS(=O)(=O)c5ccccc5)c4)c3o2)S1 [Example 141, (Z)—N-(3-[2-{(2,4-Dioxothiazolidin-5-ylidene)methyl}furo[3,2-c]pyridin-7-yl]phenyl)benzenesulfonamide]	108	21	23	51
O=C1NC(=S)S/C1=C\c1cc2cncc(-c3ccc(F)nc3)c2o1 [Example 153, (Z)-5-[{7-(6-Fluoropyridin-3-yl)furo[3,2-c]pyridin-2-yl}methylene]-2-thioxothiazolidin-4-one]	16	10	115	246
COc1ccc(-c2cncc3cc(/C=C4\SC(=S)NC4=O)oc23)cc1F [Example 161, (Z)-5-[{7-(3-Fluoro-4-methoxyphenyl)furo[3,2-c]pyridin-2-yl}methylene]-2-thioxothiazolidin-4-one]	17	13	> 10000	191
O=C1NC(=S)S/C1=C\c1cc2cncc(-c3ccc4c(c3)CCO4)c2o1 [Example 187, (Z)-5-[{7-(2,3-Dihydrobenzofuran-5-yl)furo[3,2-c]pyridin-2-yl}methylene]-2-thioxothiazolidin-4-one]	10	5	> 10000	> 10000
Cc1cc(-c2cncc3cc(/C=C4\SC(=S)NC4=O)oc23)cnc1F [Example 195, (Z)-5-[7-(6-Fluoro-5-methylpyridin-3-yl)-furo[3,2-c]pyridin-2-ylmethylene]-2-thioxothiazolidin-4-one]	3	2	156	1900
COc1c(C)cc(-c2cncc3cc(/C=C4\SC(=S)NC4=O)oc23)cc1C [Example 196, (Z)-5-[7-(4-Methoxy-3,5-dimethylphenyl)furo[3,2-c]pyridin-2-ylmethylene]-2-thioxothiazolidin-4-one]	7	10	> 10000	> 10000
Cc1cc(-c2cncc3cc(/C=C4\SC(=S)NC4=O)oc23)cc(C)c1OC(C)C [Example 197, (Z)-5-[{7-(4-Isopropoxy-3,5-dimethylphenyl)furo[3,2-c]pyridin-2-yl}methylene]-2-thioxothiazolidin-4-one]	5	121	> 10000	> 10000
COc1cc(-c2cncc3cc(/C=C4\SC(=S)NC4=O)oc23)cc(Cl)c1O [Example 217, (Z)-5-[{7-(3-Chloro-4-hydroxy-5-methoxyphenyl)furo[3,2-c]pyridin-2-yl}-methylene]-2-thioxothiazolidin-4-one]	3	1	77	563
COc1ncc(-c2cncc3cc(/C=C4\SC(=S)NC4=O)oc23)cc1C [Example 225, (Z)-5-[{7-(6-Methoxy-5-methylpyridin-3-yl)furo[3,2-c]pyridin-2-yl}methylene]-2-thioxothiazolidin-4-one]	43	4	> 10000	> 10000
O=C1NC(=O)/C(=C/c2cc3cncc(-c4ccc(S(=O)(=O)N5CCCCC5)cc4)c3o2)S1 [Example 262, (Z)-5-([7-{4-(Piperidin-1-ylsulfonyl)phenyl}furo[3,2-c]pyridin-2-yl]methylene)thiazolidine-2,4-dione]	38	33	> 10000	> 10000

— patent US9493478B2, “Fused ring compound containing furan or salt thereof and pharmaceutical composition comprising same” (YUHAN CORPORATION, priority 2012, dated 2016)
